Source: patent publication US7208612B2 (priority 2001, dated 2007)

Key:
[1] = test system: V. harveyi LuxP+, LuxS+ reporter strain (AI-2 detection system); test: Bioluminescence (light production) bioassay in LuxP+, LuxS+ reporter strain that produces its own AI-2; type: cell-based, Vibrio harveyi
[2] = test system: V. harveyi LuxS- strain; type: cell-based, Vibrio harveyi

## OB(O)O [Boric acid]
[1]; addition of 1 mM boric acid during delay period
  induction of light production: substantial induction
[1]; boric acid concentrations as low as 10 μM
  induction of light production (fold): 10 fold
[2]; LuxS- strain
  effect on bioluminescence: no effect

## C[C@@H](O)CC(=O)N[C@H]1CCOC1=O [AI-1]
[2]; latter strains (incl. LuxS-), same experimental conditions
  response to autoinducer: wild-type responses
